Values joined by “and” are separate entries in the source; they are usually repeats but may differ in a detail not shown here. Equal entries are not always repeated.
Legend:
[1] = Cell viability (ATP, CellTiter-Glo) in parallel with metabolomics experiments; settings: human, HepG2 cells, Percentage of viability (ATP) compared to the vehicle control, Bezafibrate positive control, Bezafibrate 1000 μM, 48 h, one value per experiment plate, n = 6
Protocol: (§1) HepG2 cells (ECACC, UK, maximum passage number 9) were maintained and grown on Dulbecco’s MEM media supplemented with 1% v/v of penicillin/streptomycin, L-glutamine (200 mM, 1% v/v), non-essential amino acids (100x, 1% v/v), and 10% FBS (PAN-Biotech, Aidenbach, Germany) in 75 cm^2 culture flasks (TPP, Switzerland). For cell passaging (~ 80% confluency) media was removed and cells were washed twice with pre-warmed calcium and magnesium free Dulbecco’s PBS (PAN-Biotech, Aidenbach, Germany). Trypsin was used for cell detachment. Then, 20 mL culture medium was added, and single-cell suspensions were obtained by passing the suspension through a Combitip (Eppendorf, Germany). A fraction of the cell suspension was then transferred to a new culture vessel. For experiments, 15,000 cells per well (passage 5-9) were seeded in 96-well flat-bottom plates (TPP, Switzerland) and incubated for 24 h for cell attachment (37 °C and 5% CO^2). Afterwards, culture media were exchanged, test substances applied, and plates incubated for 48 h (37 °C and 5% CO^2).
(§2) For each substance, one 96-well plate was set up with 6 replicates per concentration, 12 replicates for vehicle controls (yielding a final concentration of 0.5% DMSO in the well), 6 replicates for positive controls (Bezafibrate 1000 μM), and 6 replicates for blank controls (media without cells). To minimize potential evaporation, the outer rows and columns of the plate were omitted and filled with PBS instead. Reference samples prepared from lyophilized HepG2 cells were measured in parallel throughout the entire analytical process (technical replicates). […] Lyophilized HepG2 cells reference samples were used to account for variability between plates and in concentration series for linearity checks. After 48 h, the assays were stopped by washing the wells once with 100 μL 0.9% NaCl followed by snap freezing the plates on liquid nitrogen for 5 s. Plates were placed immediately on dry ice and 50 μL ice-cooled isopropanol 80% (v/v) were added to quench metabolism and precipitate proteins. Plates were stored at − 80 °C until LC/ MS analysis.

HepG2 cells [2] = assay: as above; settings: Bezafibrate 1000 μM, 48 h, one value per experiment plate, n = 6
Protocol: as §1, §2

HepG2 cells [3] = assay: LC-MS/MS targeted intracellular metabolomics; type: cell-based, human; settings: Suppl Fig 9; C3 (EC15 ATP), 48 h; Bezafibrate lines = Plates 1-6 in order
Protocol: Metabolite profiling of cells was performed directly in the same 96-well plate according to a standardized protocol described below. In order to prevent any interaction with the cell material, the automatic sampler was adjusted to pick up the sample from the supernatant at a specified depth avoiding the contact with the bottom of the plate.
After the initial quenching step (50 μL isopropanol 80%), additional 70 μL of isopropanol 80%, containing internal standards (methionine-D3, tryptophan-D5, arginine-13C6-15N4, Boc-Ala-Gly-Gly-Gly-OH, coenzyme Q1, coenzyme Q2, coenzyme Q4) were added to each well. The internal standards were used for quality control by visual inspection (signal intensity, peak shape, retention time); they were not used for normalization. Afterwards, plates were shaken for 5 min, 750 rpm at 20 °C, and placed for 30 s in the ultrasonic device. Then, the plates were centrifugated for 10 min, at 5485 g, 15 °C. Further, 2.5 μL of the extract were injected each for reversed-phase and hydrophilic interaction liquid chromatography followed by MS/MS detection (AB Sciex QTrap 6500+) using the positive and negative ionization mode. For reverse-phase high-performance liquid chromatography (RP-HPLC, Ascentis Express C18, 5 cm × 2.1 mm, 2.7 μm Supelco), gradient elution was performed with mobile phase A, water/methanol/0.1 M ammonium formate (1:1:0.02, w/w), and B, methyl-tert-butylether/2-propanol/methanol/0.1 M ammonium formate/formic acid (4:2:1:0.07:0.035, w/w) 5.9 min linear gradient: 0 min 100% A, 0.5 min 75% A, 5.9 min 10% A; followed by 0% A until 6.7 min; re-equilibration at 100% A until 7.7 min; flow rate 600 μL/min; column temperature 40 °C HILIC (ZIC-HILIC, 2.1 × 100 mm, 3.5 μm, Supelco) gradient elution was performed with mobile phase C, acetonitrile/water (99:1, v/v) with 0.2% (v) acetic acid, and D, 7 mM ammonium acetate with 0.2% (v) acetic acid (5.0 min linear gradient: 0 min 100% C, 5 min 10% C; followed by a linear gradient back to 100%C until 6.5 min; re-equilibration at 100% C until 7.5 min; flow rate 600 μL/min; column temperature 40 °C.). Two LC-MS systems with identical configuration were used for the analysis. Normalization to lyophilized reference samples (see below) was used to compensate for variation from between analytical batches. The efficiency of this normalization procedure was checked by principal component analysis (PCA), confirming that Pool samples from different analytical batches clustered together.
Reference samples derived from lyophilized untreated HepG2 cells (technical control samples) were measured in parallel throughout the entire analytical process. Data were normalized against the median of these lyophilized HepG2 cells reference samples, to give normalized ratios (performed for each sample per metabolite). This compensated for inter- and intra-instrumental variation. To correct for small differences in cell numbers within and between different treatment groups, data were also normalized to the within sample median, as described in detail by (Ramirez et al. [2018]). For intracellular metabolomic analysis, the median of each sample was calculated across all the 221 measured metabolites.
To generate metabolic profiles for the different treatments, heteroscedastic t test (Welch test) was applied to log-transformed normalized metabolite data to compare treated groups with their respective controls.
Principal component analysis (PCA) and hierarchical clustering (HCA) analyses were performed using R software environment (https://www.r-project.org/). PCA was conducted using the ropls package (Thévenot et al. [2015]) with log10-transformed input data and standard scaling. HCA was performed using the pvclust package (Suzuki et al. [2019]), (https://CRAN.R-project.org/package=pvclust). Input: log10(Ratio), clustering method: Ward D2, distance method: Manhattan, bootstrapping: 10000 times.

## CC(C)(Oc1ccc(CCNC(=O)c2ccc(Cl)cc2)cc1)C(=O)O [Bezafibrate]
[1]
  viability at 48 h, 1000 μM: 71 to 84%
HepG2 cells [2]
  Percentage of viability (ATP) compared to the vehicle control, Bezafibrate positive control: 84.1 ± 2.3% and 76.3 ± 3.2% and 75.0 ± 1.5% and 71.8 ± 2.8% and 78.0 ± 0.7% and 79.3 ± 2.2%
HepG2 cells [3]
  5-Hydroxytryptophan level vs controls: 0.84 and 0.77 and 0.76 and 0.85 and 0.74 and 0.65
  Carnitine level vs controls: 0.72 and 0.74 and 0.84 and 0.77 and 0.80
  Ceramide (d18:1.C20:0) level vs controls: 0.63 and 0.66 and 0.56 and 0.62 and 0.64 and 0.59
  Ceramide (d18:1.C24:1) level vs controls: 0.66 and 0.91 and 0.98 and 0.80 and 0.85 and 0.68
  Ceramide (d18:1.C24:2) level vs controls: 0.83 and 1.08 and 1.11 and 0.89 and 0.90 and 0.91
  Ceramide (d18:2.C24:1) level vs controls: 0.56 and 0.62 and 0.68 and 0.89 and 0.63
  Choline plasmalogen (C36:4) level vs controls: 0.65 and 0.80 and 0.68 and 0.69 and 0.73 and 0.72
  Choline plasmalogen (C36:5) level vs controls: 0.78 and 0.90 and 0.80 and 0.83 and 0.82 and 0.79
  Creatine level vs controls: 0.80 and 0.82 and 0.73 and 0.78 and 0.67 and 0.66
  Glycerol-3-phosphate level vs controls: 0.68 and 0.43 and 0.45 and 0.54 and 0.44 and 0.39
  Hexanoylcarnitine level vs controls: 0.65 and 0.54 and 0.50 and 0.59 and 0.62
  Ketoleucine level vs controls: 0.73 and 0.72 and 0.74 and 0.77 and 1.10
  Lysophosphatidylcholine (C14:0) level vs controls: 2.27 and 1.82 and 2.09 and 1.97 and 1.85 and 1.87
  Lysophosphatidylcholine (C16:0) level vs controls: 1.86 and 1.92 and 1.98 and 2.08 and 1.93 and 2.14
  Lysophosphatidylcholine (C16:1) level vs controls: 1.95 and 2.13 and 2.01 and 2.17 and 1.86 and 1.72
  Lysophosphatidylcholine (C20:4) level vs controls: 1.22 and 1.67 and 1.47 and 1.90 and 1.86 and 1.44
  Lysophosphatidylcholine (C24:0) level vs controls: 1.01 and 1.18 and 1.11 and 1.20 and 1.21 and 1.29
  Lysophosphatidylcholine (C24:1) level vs controls: 1.10 and 1.03 and 1.13 and 1.26 and 1.12
  Lysophosphatidylethanolamine (C16:0) level vs controls: 2.47 and 2.37 and 2.23 and 2.12 and 2.10 and 2.19
  Lysophosphatidylethanolamine (C18:0) level vs controls: 2.21 and 2.07 and 1.76 and 1.77 and 2.04
  Lysophosphatidylethanolamine (C18:1) level vs controls: 2.45 and 2.31 and 1.97 and 2.19 and 2.11 and 2.16
  N-Acetylaspartate level vs controls: 1.54 and 1.49 and 1.66 and 1.48 and 1.41 and 1.25
  Pantothenic acid level vs controls: 0.68 and 0.77 and 0.59 and 0.72 and 0.70 and 0.76
  Phosphatidylcholine (C32:0) level vs controls: 0.82 and 0.70 and 0.79 and 0.88 and 0.83 and 0.76
  Phosphatidylcholine (C34:1) level vs controls: 0.83 and 0.75 and 0.78 and 0.82 and 0.74
  Phosphatidylcholine (C34:3) level vs controls: 1.02 and 1.18 and 1.17 and 1.09 and 1.15 and 1.04
  Phosphatidylcholine (C36:1) level vs controls: 0.86 and 0.88 and 0.73 and 0.84 and 0.79 and 0.90
  Phosphatidylcholine (C36:2) level vs controls: 0.66 and 0.71 and 0.62 and 0.69 and 0.65
  Phosphatidylcholine (C36:3) level vs controls: 0.90 and 1.03 and 0.84 and 0.96 and 0.97 and 0.89
  Phosphatidylcholine (C36:4) level vs controls: 1.00 and 0.93 and 0.81 and 0.98 and 0.95 and 0.94
  Phosphatidylcholine (C36:5) level vs controls: 0.78 and 0.81 and 0.63 and 0.76 and 0.72 and 0.75
  Phosphatidylethanolamine (C36:3) level vs controls: 0.90 and 0.87 and 0.84
  Phosphatidylethanolamine (C38:3) level vs controls: 0.72 and 0.70 and 0.64 and 0.75 and 0.68 and 0.66
  Phosphatidylethanolamine (C38:5) level vs controls: 0.90 and 1.00 and 0.86 and 0.98 and 0.87
  Phosphatidylethanolamine (C38:6) level vs controls: 0.92 and 0.91 and 0.95 and 1.01 and 0.98
  Phosphatidylethanolamine (C40:7) level vs controls: 0.79 and 0.81 and 0.75 and 0.88 and 0.82
  Phosphocholine level vs controls: 0.78 and 0.69 and 0.56 and 0.63
  Propionylcarnitine level vs controls: 0.66 and 0.78 and 0.40 and 0.58 and 0.54 and 0.57
  S-Adenosylhomocysteine level vs controls: 0.92 and 0.98 and 0.70 and 0.93 and 0.78 and 0.79
  Sphingomyelin (d32:2) level vs controls: 0.49 and 0.71 and 0.69 and 0.75 and 0.59 and 0.78
  Sphingomyelin (d33:1) level vs controls: 1.19 and 1.34 and 1.15 and 1.32 and 1.18 and 1.20
  Sphingomyelin (d34:0) level vs controls: 0.96 and 1.09 and 1.25 and 1.15 and 1.11
  Sphingomyelin (d35:1) level vs controls: 0.86 and 0.95 and 0.88 and 0.85 and 0.92
  Sphingomyelin (d36:1) level vs controls: 0.86 and 0.96 and 0.90 and 0.82 and 0.84
  Sphingomyelin (d36:2) level vs controls: 0.73 and 0.90 and 0.85 and 0.87 and 0.88
  Sphingomyelin (d37:1) level vs controls: 0.70 and 0.80 and 0.79 and 0.76
  Sphingomyelin (d38:1) level vs controls: 0.88 and 0.84 and 0.85 and 0.87 and 0.91
  Sphingomyelin (d38:2) level vs controls: 0.61 and 0.66 and 0.64 and 0.67 and 0.71
  Sphingomyelin (d39:1) level vs controls: 0.77 and 0.83 and 0.87 and 0.81 and 0.86
  Sphingomyelin (d40:2) level vs controls: 0.73 and 0.83 and 0.81 and 0.87 and 0.78 and 0.84
  Sphingomyelin (d41:2) level vs controls: 0.78 and 0.79 and 0.82 and 0.88 and 0.77 and 0.80
  Sphingomyelin (d42:2) level vs controls: 0.86 and 0.95 and 0.81 and 0.98 and 0.89 and 0.91
  Taurine level vs controls: 0.93 and 0.92 and 0.68 and 0.90 and 0.88
  Triacylglycerol (C34:1.C18:3) level vs controls: 1.57 and 2.06 and 2.37 and 1.58 and 1.93 and 2.00
  Triacylglycerol (C34:2.C18:0) level vs controls: 1.63 and 1.54 and 1.78 and 1.17 and 1.31 and 1.39
  Triacylglycerol (C34:2.C18:1) level vs controls: 1.40 and 1.62 and 1.81 and 1.26 and 1.79 and 1.43
  Triacylglycerol (C36:4.C16:0) level vs controls: 1.74 and 2.34 and 2.73 and 1.73 and 1.97 and 2.11
  Triacylglycerol (C36:4.C18:0) level vs controls: 1.72 and 1.82 and 2.28 and 2.15 and 2.38 and 2.26
